Patent publication US11084895B2, “Modified polytetrafluoroethylene fine powder and uniaxially stretched porous body” (DAIKIN INDUSTRIES, LTD., priority 2013, dated 2021)

Experiment: LogPOW, octanol-water partition coefficient calculated from HPLC elution time via calibration curve
Format: physicochemical
Conditions: partition coefficient between 1-octanol and water, ODS-120T column, acetonitrile/0.6 mass % HClO4 aq. 1/1, 40° C.
Procedure: The LogPOW value is a partition coefficient between 1-octanol and water, and is represented by LogP, wherein P represents the ratio of (fluorosurfactant concentration in octanol)/(fluorosurfactant concentration in water) when an octanol/water (1:1) liquid mixture containing a fluorosurfactant is phase-separated.
The octanol-water partition coefficient represented by LogPOW is calculated as follows. HPLC is performed on standard substances (heptanoic acid, octanoic acid, nonanoic acid, and decanoic acid) each having a known octanol-water partition coefficient using TOSOH ODS-120T column (ϕ4.6 mm×250 mm) as a column and acetonitrile/0.6 mass % HClO4 aqueous solution=1/1 (vol/vol %) as an eluent at a flow rate of 1.0 ml/min, a sample amount of 300 μL, and a column temperature of 40° C., with detection light UV 210 nm. A calibration curve between the respective elution times and the known octanol-water partition coefficients is drawn, and the LogPOW value is calculated from the elution time of the sample liquid in HPLC based on the calibration curve.

| SMILES | LogPOW value | chromatographic logP |
| --- | --- | --- |
| N.O=C(O)C(F)(OC(F)(F)C(F)(OC(F)(F)F)C(F)(F)F)C(F)(F)F (centres unmarked) [CF3OCF(CF3)CF2OCF(CF3)COONH4] | ≤ 3.4 | – |
| O=C(O)C(F)(F)C(F)(F)C(F)(F)C(F)(F)C(F)(F)C(F)(F)C(F)(F)F [PFOA, ammonium perfluorooctanoate] | – | 3.5 |
